From patent US10603325B2, “Methods of treating age-related symptoms in mammals and compositions therefor” (University of Maryland, priority 2014, dated 2020)
Entries after “also recorded” stand apart in the source; their conditions may differ.

Assays:
HGPS cells [1] = experiment: Senescence: SA-β-gal assay and p16 expression analysis; assay type: cell-based, human; details: MB-treated vs mock-treated HGPS cells
Experimental: SA-β-gal activity assay was performed according to the manufacturer's protocol (#9860; Cell Signaling). Briefly, fibroblasts cells grown on six-well plate were fixed in 1× fixative solution containing 2% formaldehyde and […] for 10 minutes, and then stained overnight at 37° C. with the (3-galactosidase staining solution at pH 6.0 for 15 hours. Images were acquired by Zeiss AX10 microscope with a SPOT PURSUIT camera.

progerin in HGPS cells = experiment: Confocal microscopy of progerin distribution; assay type: cell-based, human; details: MB treated HGPS cells, anti-progerin antibody staining
[2] = test system: normal and HGPS fibroblasts; experiment: ATP assay; assay type: cell-based, human; details: MB 100 nM, 5 weeks, vs mock
Experimental: (§1) (Upper panel). Normalized relative HP1α protein levels in each sample are shown in the lower graph.
(§2) To evaluate the effects of MB on mitochondria, ATP levels, mitochondrial superoxide (MitoSOX) and overall intracellular ROS (DCFDA) in Mock or MB-treated cells.
Intracellular ATP content was measured by using luminescence ATP detection System (ATPlite, PerkinElmer). Briefly, fibroblast cells were harvested with 0.05% trypsin-EDTA and counted. The same number of 2,500 cells from each fibroblast sample was seeded onto a 96-well black plate (triplicate). After the cells had been lysed with the lysis buffer for five minutes, the substrate solution was added and mixed for another five minutes to conduct the reaction for light generation. After dark adaption for 10 minutes, the luminescence intensity of each well was acquired at luminescence mode with SoftMax Pro software connecting to SpectraMax M5 Microplate Reader.

[3] = test system: normal and HGPS fibroblasts; experiment: ROS assays by flow cytometry (MitoSOX, DCFDA); assay type: cell-based, human
Experimental: as §1, §2
To measure mitochondrial superoxide, MB or other antioxidant treated skin fibroblast cells cultured on 60-mm dishes were incubated with fresh complete medium containing 5 μM MitoSOXRed (Life Technologies) at 37° C. After 30 minutes, stained cells were harvested by trypsin digestion and rinsed twice with PBS. Single cell suspensions in 400 μl PBS were prepared for FACS analysis (FACS Canto II; BD). MitoSOX Red was excited by laser at 488 nm, and the data was collected at 582±21 nm. See results in FIG. 10.
To measure mitochondrial superoxide, cells grown on 60-mm dishes were incubated with fresh complete medium containing 5 μM MitoSOX Red (Life Technologies, M36008) at 37° C. After 30 minutes, stained cells were harvested by trypsin digestion and rinsed twice with PBS. Single cell suspensions in 400 μl PBS were prepared for FACS analysis (FACS Canto II; BD). […] Mitochondrial membrane potential (MMP, Life Technologies, M34152) and Annexin V-positive apoptotic cells (BD Pharmingen, 556547) were measured according to manufacturer's protocol. Flow cytometry was performed by FACS Cantoll (BD) and the data were analyzed by FlowJo Software.

[4] = test system: mitochondria in normal and HGPS fibroblasts; experiment: TEM scoring of mitochondrial abnormalities; assay type: cell-based, human; details: MB 100 nM, 8 weeks
Experimental: as §1, §2
(§3) Passage-matched normal or HGPS skin fibroblasts were grown on 35-mm glass bottom dish until 80% confluence. Cells were prepared for transmission electron microscopic analysis following the protocol of McCord et al. Briefly, cells were fixed with 2.5% glutaraldehyde in 0.1 M sodium cacodylate (pH 7.4) for one hour at room temperature. Specimens were washed three times with 0.1 M sodium cacodylate and post-fixed for one hour with 1% osmium tetroxide in 0.1 M sodium cacodylate at room temperature. After washing three times with distilled water, specimens were incubated with 2% aqueous uranyl acetate at room temperature. The specimens were dehydrated in ethanol gradients: 35% for 10min, 50% for 10min, 70% for 10min, for 95% for 10 min, and 100% for 3×5 min. […] Mitochondrial morphological quantification was conducted blindly by a trained TEM expert. Two observers scored over 360 mitochondria from 10 randomly selected cells in each group blindly. […] Over 300 mitochondria in either normal or HGPS lines were blindly scored according to these criteria.

[5] = test system: PGC-1α in normal and HGPS fibroblasts; experiment: PGC-1α expression (western blot, quantitative RT-PCR); assay type: cell-based, human; details: MB 100 nM, 8 weeks
HGPS cells [6] = experiment: Perinuclear heterochromatin (TEM) and HP1α immunostaining/western blotting; assay type: cell-based, human
Text: as §1
Based on the results from FIG. 4 and FIGS. 5A-D, it was hypothesized that While MB is a universal mitochondrial-targeting antioxidant for both normal and HGPS cells, it has a specific role in HGPS cells by dislocating progerin away from the nuclear membrane. Previous studies reported that the anchorage of progerin to the nuclear membrane caused a loss of perinuclear heterochromatin in HGPS Cells. […] The rescue of heterochromatin loss by MB was further verified by immunostaining and western blotting using an antibody against heterochromatin protein 1alpha (HP1α).
as §3, with “min. The infiltration was performed in EtOH: EPON resin mixture at various ratio from 1:1, 1:2, 1:3 or complete EPON for one hour each ratio. The specimens were finally embedded in complete EPON at 60° C. over night.” for “min.”

HGPS fibroblasts = experiment: RNA-seq gene expression differential analysis; assay type: cell-based, human
Experimental: (§4) FIG. 6(A)-(B): Methylene Blue Rescues Gene Expression in HGPS Cells • (A) Pie chart showing the percentages and (B) the counted gene numbers of unaffected- and affected-genes in paired comparison among four groups (Normal+Vehicle vs. Progeria+Vehicle; Normal+Vehicle vs. Normal+MB; Progeria+Vehicle vs. Progeria+MB; and Normal+Vehicle+Progeria+MB).
(§5) Chromatin re-organization after MB treatment may induce gene expression changes. To examine the effects of MB on gene expression, RNA-seq was conducted in Mock and MB treated normal and HGPS cells, and gene expression differential analysis was performed using Tophat and Cufflinks suite of tools (see Methods). The RNA-seq data was obtained from two biological replicates; each included four groups of samples (Normal+Vehicle; Normal+MB; HGPS+Vehicle; and HGPS+MB). Pairwise comparisons were conducted (FIG. 6A-B). Consistent with previous studies, there are more than 20% differentially expressed genes (up/down: 7.79%/14.18%) in HGPS cells vs. normal fibroblasts (FIG. 6A-1).
(§6) For RNA sequencing experiments, the cell pellets of Normal or HGPS fibroblasts were collected from two individually cultured cells treated with vehicle or 100 nM MB from P15 or P16 to P20. Total RNA was extracted with Trizol (Life Sciences), followed by RNA precipitation with isopropanol, then purified using the RNeasy Mini Kit (Qiagen). The RNA quality was checked using Agilent 2100 Bioanalyzer showing good RIN numbers (8.90=9.70) in all eight samples. The RNA-seq sample preparation and sequencing were conducted according to the Illumina Truseq RNA sample preparation V2 guide by the IBBR Sequencing Core Facility at the University of Maryland. RNA-seq mapping and gene expression differential analysis was performed using Tophat and Cufflinks suite of tools as described previously by Trapnell et al.

normal fibroblasts = experiment: RNA-seq gene expression differential analysis; assay type: cell-based, human; details: Normal+Vehicle vs. Normal+MB, 100 nM
Experimental: as §4, §5, §6

skin fibroblast cells = experiment: Cell viability after H2O2 insults; assay type: cell-based, human; details: H2O2 1 mM, 60 minutes; low and high concentrations of MB
Experimental: MB or other antioxidant treated skin fibroblast cells were incubated with PBS containing H2O2 at 1 mM for 60 minutes. The cells were then washed three times using PBS and subjected to a cellular stress assay (as described above in 2). See the results obtained in FIG. 11.

Skin tissues = experiment: Skin hydration test (DPM9003); assay type: cell-based; details: MB for 2 weeks
Experimental: Skin tissues were treated with MB for 2 weeks, then skin hydration was detected by using DPM9003 with 4 mm probe. […] See the results obtained in FIG. 13. The noted small variations appear to have been due to pressure and leakage of medium.

[7] = test system: EpiDerm Full Thickness (EFT-412); experiment: ECM gene expression analysis (quantitative PCR array); assay type: cell-based; details: MB for two weeks
Experimental: The expression of ECM genes were analyzed by quantitative PCR array on EpiDerm Full Thickness (EFT-412).
EFT-412 tissues were treated with MB for 2 weeks. […] Using RCP arrays for ECM remodeling genes. See results obtained in FIG. 14.

[8] = test system: Epiderm Full Thickness (EFT-412) skin tissue; experiment: Histological analysis (H&E) of skin tissue; assay type: cell-based; details: MB at various concentration for two weeks
Text: H&E staining on the MB treated skin tissues. […] See the results obtained in FIG. 15.

[9] = HGPS+Vehicle vs. HGPS+MB, 100 nM

CN(C)c1ccc2nc3ccc(N(C)C)cc3[s+]c2c1.[Cl-] [MB, 3,7-bis(dimethylamino)-phenothiazin-5-ium chloride]
senescence (SA-β-gal, p16 expression) (HGPS cells [1]): younger than the mock-treated cells
progerin distribution in nucleus (progerin in HGPS cells): clear redistribution of progerin from the nuclear rim into the nucleoplasm
ATP production [2]: Significant improvements in ATP production
ROS levels (MitoSOX, DCFDA) ([3]; MB 100 nM, 8 weeks, vs mock): reductions in ROS levels
MitoSOX level (mitochondria specific superoxide) ([3]; four weeks treatment, normal and HGPS fibroblasts, comparison with NAC, MitoQ, MitoTEMPO): significant decrease of MitoSOX level
number of severely defective mitochondria [4]: significant reduction in the number of severely defective mitochondria
expression of PGC-1α [5]: stimulated the expression of PGC-1α
HP1α protein level (HGPS cells [6]; MB 100 nM, 6 weeks): upregulation of HP1α protein level
nuclear HP1α staining (HGPS cells [6]; MB 100 nM, 6 weeks): increase in nuclear HP1α staining
perinuclear heterochromatin organization (TEM) (HGPS cells [6]; MB 8 weeks): readily apparent restoration of perinuclear heterochromatin organization
genes affected by MB, down (HGPS fibroblasts; [9]): 0.45%
genes affected by MB, up (HGPS fibroblasts; [9]): 1.52%
number of differentially expressed genes (HGPS fibroblasts; Normal+Vehicle vs. HGPS+MB, after one month of MB treatment): 1674
genes with significant expression changes, down (normal fibroblasts): 0.14%
genes with significant expression changes, up (normal fibroblasts): 0.19%
cell viability upon hydrogen peroxide treatment (skin fibroblast cells): significantly improved cell viability
skin hydration (Skin tissues): did not increase skin hydration
normal gene expression (3D skin tests) [7]: little or no effect on normal gene expression
dermis / skin thickness [8]: increase dermis thickness; also recorded: Increases Skin Thickness
